# Results as given in article PMC12979031 (Neuro-oncology, 2026).
# What was measured:
# [1] = tested on: PARP1/2; details: read-out: in vitro IC50 for PARP1/2 inhibition; cited from earlier work
# [2] = Surgical; assay type: in vivo; details: human, oral, 60 mg
# [3] = tested on: recurrent IDHmt gliomas; details: second study in this population; cited from earlier work
fraction unbound ([2]; enhancing tumor),Kp ([2]; non-enhancing tumor / plasma),Kp uu ([2]; non-enhancing tumor / plasma),fraction unbound ([2]; non-enhancing tumor),fraction unbound ([2]; plasma),Structure (SMILES),IC50 [1],responses [3]
0.076,0.23,0.92,0.083,0.031,C[C@]12CCCN1CC1=NNC(=O)c3cc(F)cc4[nH]c2c1c34 [pamiparib],~1 nM,–
–,–,–,–,–,O=C(c1cc(Cc2n[nH]c(=O)c3ccccc23)ccc1F)N1CCN(C(=O)C2CC2)CC1 [olaparib],–,no responses
